Reference: paper PMC3545969, “Mutagenicity and antimutagenicity of (−)-hinokinin a trypanosomicidal compound measured by Salmonella microsome and comet assays” (BMC Complementary and Alternative Medicine, 2012)
Read-outs that look alike come from different tables or passages of the source. Marks after values point to notes of the source that are not given here.

How the values were obtained:
[1] = tested on: Salmonella typhimurium TA102
[2] = tested on: Salmonella typhimurium TA98
[3] = tested on: Salmonella typhimurium TA100
[4] = tested on: Salmonella typhimurium TA97a; conditions: for % inhibition / Number of revertants(M ± SD)/ plate: TA 97a
[5] = TA 98, − S9, HK 19.5 μg/plate + NOPD 10.0 μg/plate
[6] = TA 98, − S9, HK 39.0 μg/plate + NOPD 10.0 μg/plate
[7] = TA 98, − S9, HK 58.5 μg/plate + NOPD 10.0 μg/plate
[8] = TA 98, − S9, HK 78.0 μg/plate + NOPD 10.0 μg/plate
[9] = TA 98, − S9, HK […] + NOPD 10.0 μg/plate
[10] = TA 100, + S9, HK 19.5 μg/plate + AFB1 0.5 μg/plate
[11] = TA 100, + S9, HK 39.0 μg/plate + AFB1 0.5 μg/plate
[12] = TA 100, + S9, HK 58.5 μg/plate + AFB1 0.5 μg/plate
[13] = TA 100, + S9, HK 78.0 μg/plate + AFB1 0.5 μg/plate
[14] = TA 100, + S9, HK […] + AFB1 0.5 μg/plate
[15] = TA 100, − S9, HK 19.5 μg/plate + SA 1.25 μg/plate
[16] = TA 100, − S9, HK 39.0 μg/plate + SA 1.25 μg/plate
[17] = TA 100, − S9, HK 58.5 μg/plate + SA 1.25 μg/plate
[18] = TA 100, − S9, HK 78.0 μg/plate + SA 1.25 μg/plate
[19] = TA 100, − S9, HK […] + SA 1.25 μg/plate
[20] = + S9, HK 19.5 μg/plate + 2-AA 1.25 μg/plate
[21] = + S9, HK 39.0 μg/plate + 2-AA 1.25 μg/plate
[22] = + S9, HK 58.5 μg/plate + 2-AA 1.25 μg/plate
[23] = + S9, HK 78.0 μg/plate + 2-AA 1.25 μg/plate
[24] = + S9, HK […] + 2-AA 1.25 μg/plate

O=C1OC[C@H](Cc2ccc3c(c2)OCO3)[C@H]1Cc1ccc2c(c1)OCO2 [HK, (−)-hinokinin]
Number of revertants(M ± SD)/ plate ([1]; TA 102, + S9, HK 19.5 μg/plate): 363 ± 3 revertants/plate | MI (mutagenicity index) ([1]; TA 102, + S9, HK 39.0 μg/plate): 0.9 | Number of revertants(M ± SD)/ plate ([1]; TA 102, + S9, HK 39.0 μg/plate): 354 ± 4 revertants/plate | MI (mutagenicity index) ([1]; TA 102, + S9, HK 58.5 μg/plate): 1.0 | Number of revertants(M ± SD)/ plate ([1]; TA 102, + S9, HK 58.5 μg/plate): 398 ± 9 revertants/plate | MI (mutagenicity index) ([1]; TA 102, + S9, HK 78.0 μg/plate): 1.0 | Number of revertants(M ± SD)/ plate ([1]; TA 102, + S9, HK 78.0 μg/plate): 402 ± 3 revertants/plate | Number of revertants(M ± SD)/ plate ([1]; TA 102, - S9, HK 19.5 μg/plate): 231 ± 8 revertants/plate | MI (mutagenicity index) ([1]; TA 102, - S9, HK 39.0 μg/plate): 0.9 | Number of revertants(M ± SD)/ plate ([1]; TA 102, - S9, HK 39.0 μg/plate): 213 ± 4 revertants/plate | MI (mutagenicity index) ([1]; TA 102, - S9, HK 58.5 μg/plate): 0.8 | Number of revertants(M ± SD)/ plate ([1]; TA 102, - S9, HK 58.5 μg/plate): 201 ± 6 revertants/plate | MI (mutagenicity index) ([1]; TA 102, - S9, HK 78.0 μg/plate): 0.8 | Number of revertants(M ± SD)/ plate ([1]; TA 102, - S9, HK 78.0 μg/plate): 186 ± 2 revertants/plate | % inhibition ([2]; TA 98, + S9, HK 19.5 μg/plate + B[a]P 1.0 μg/plate): 32** % | % inhibition ([2]; TA 98, + S9, HK 39.0 μg/plate + B[a]P 1.0 μg/plate): 36** % | % inhibition ([2]; TA 98, + S9, HK 58.5 μg/plate + B[a]P 1.0 μg/plate): 52*** % | % inhibition ([2]; TA 98, + S9, HK 78.0 μg/plate + B[a]P 1.0 μg/plate): 59*** % | % inhibition ([2]; TA 98, + S9, HK […] + B[a]P 1.0 μg/plate): 31** % | % inhibition [2, 5]: 21* % | Number of revertants(M ± SD)/ plate [2, 5]: 507 + 15 revertants/plate | % inhibition [2, 6]: 26** % | Number of revertants(M ± SD)/ plate [2, 6]: 477 + 5 revertants/plate | % inhibition [2, 7]: 19* % | Number of revertants(M ± SD)/ plate [2, 7]: 521 + 9 revertants/plate | % inhibition [2, 8]: 25** % | Number of revertants(M ± SD)/ plate [2, 8]: 480 + 16 revertants/plate | % inhibition [2, 9]: 18* % | Number of revertants(M ± SD)/ plate [2, 9]: 525 + 7 revertants/plate | % inhibition [3, 10]: 45*** % | Number of revertants(M ± SD)/ plate [3, 10]: 976 + 18 revertants/plate | % inhibition [3, 11]: 47*** % | Number of revertants(M ± SD)/ plate [3, 11]: 943 + 11 revertants/plate | % inhibition [3, 12]: 71*** % | Number of revertants(M ± SD)/ plate [3, 12]: 612 + 33 revertants/plate | % inhibition [3, 13]: 89*** % | Number of revertants(M ± SD)/ plate [3, 13]: 354 + 22 revertants/plate | % inhibition [3, 14]: 30** % | Number of revertants(M ± SD)/ plate [3, 14]: 1183 + 30 revertants/plate | effect on mutation induced by AFB1 ([3]; TA100, +S9): did inhibit mutation induced by the alkylating agent AFB1 | effect on mutagenesis induced by SA ([3]; TA100, absence of metabolic activation): did not reduce mutagenesis | % inhibition [3, 15]: 9* % | Number of revertants(M ± SD)/ plate [3, 15]: 1112 + 34 revertants/plate | % inhibition [3, 16]: 5* % | Number of revertants(M ± SD)/ plate [3, 16]: 1169 + 32 revertants/plate | % inhibition [3, 17]: 7* % | Number of revertants(M ± SD)/ plate [3, 17]: 1145 + 16 revertants/plate | % inhibition [3, 18]: 3* % | Number of revertants(M ± SD)/ plate [3, 18]: 1181 + 41 revertants/plate | % inhibition [3, 19]: 7* % | Number of revertants(M ± SD)/ plate [3, 19]: 1139 + 20 revertants/plate | % inhibition [4, 20]: 45*** % | Number of revertants(M ± SD)/ plate [4, 20]: 659 + 41 revertants/plate | % inhibition [4, 21]: 49*** % | Number of revertants(M ± SD)/ plate [4, 21]: 628 + 16 revertants/plate | % inhibition [4, 22]: 67*** % | Number of revertants(M ± SD)/ plate [4, 22]: 456 + 13 revertants/plate | % inhibition [4, 23]: 60*** % | Number of revertants(M ± SD)/ plate [4, 23]: 523 + 86 revertants/plate | % inhibition [4, 24]: 43*** % | Number of revertants(M ± SD)/ plate [4, 24]: 682 + 52 revertants/plate | Number of revertants(M ± SD)/ plate ([4]; - S9, HK 19.5 μg/plate + NOPD 10.0 μg/plate): 948 + 24 revertants/plate | Number of revertants(M ± SD)/ plate ([4]; - S9, HK 39.0 μg/plate + NOPD 10.0 μg/plate): 979 + 84 revertants/plate | Number of revertants(M ± SD)/ plate ([4]; - S9, HK 58.5 μg/plate + NOPD 10.0 μg/plate): 1006 + 54 revertants/plate | Number of revertants(M ± SD)/ plate ([4]; - S9, HK 78.0 μg/plate + NOPD 10.0 μg/plate): 1026 + 75 revertants/plate | Number of revertants(M ± SD)/ plate ([4]; - S9, HK […] + NOPD 10.0 μg/plate): 934 + 33 revertants/plate | effect on mutagenesis induced by NOPD ([4]; TA97a, absence of metabolic activation): did not reduce mutagenesis | potentiation of NOPD-induced effect (revertants vs positive control alone) ([4]; strain 97a, −S9, HK + NOPD): potentiated NOPD -induced clastogenicity
